From ChEMBL document CHEMBL5131473, “One-pot synthesis of oxoaporphines as potent antitumor agents and investigation of their mechanisms of actions” (Eur J Med Chem, 2022) come the findings set out here.

Molecules are shown by their SMILES. Activity calls are given as the source filed them. The rule behind the calls is not given here.

Common to all, as to type: functional, cell-based
Assay [1] deals with HepG2. Description: Antiproliferative activity against human HepG2 cells assessed as cell growth inhibition measured after 48 hrs by MTT assay. The note with it: HepG2, 48 h.
In assay [2] the test system is MGC-803. Description: Antiproliferative activity against human MGC-803 cells assessed as cell growth inhibition measured after 48 hrs by MTT assay. The note with it: MGC-803, 48 h.
Assay [3] relates to T-24. Description: Antiproliferative activity against human T24 cells assessed as cell growth inhibition measured after 48 hrs by MTT assay. The note with it: T-24, 48 h.
The subject of assay [4] is SK-OV-3. Description: Antiproliferative activity against human SK-OV-3 cells assessed as cell growth inhibition measured after 48 hrs by MTT assay. The note with it: SK-OV-3, 48 h.
In assay [5] the test system is WI-38. Description: Antiproliferative activity against human WI-38 cells assessed as cell growth inhibition measured after 48 hrs by MTT assay. The note with it: WI-38, 48 h.
Assay [6] relates to T-24. Description: Induction of mitochondrial membrane potential dysfunction in human T24 cells assessed as mitochondrial fragment condensation at 0.5 to 1 uM by mito-tracker green dye based fluorescence microscopy. The note with it: dose 0.5-1 µM.

Consider `O=C1c2cc3c(cc2-c2cccc4ccnc1c24)OCO3`, for which the IC50 in assay [1] was greater than 40 µM; in assay [2] it was 20.8 µM; in assay [3], 14.2 µM; in assay [4] it was 38.1 µM; in assay [5], greater than 40 µM.

Regarding `COc1cc2c(cc1OC)-c1cccc3ccnc(c13)C2=O`, the IC50 in assay [1] was 35.9 µM; in assay [2] it was 10.9 µM; in assay [3] it was 22.3 µM; in assay [4] it was greater than 40 µM; in assay [5], 38.2 µM.

In the case of `O=c1[nH]cc(F)c(=O)[nH]1` [FLUOROURACIL], the IC50 in assay [1] was 20.4 µM; in assay [2], 39.1 µM; in assay [3] it was 39.4 µM; in assay [4], 21.6 µM; in assay [5] it was greater than 40 µM.

With `O=C1c2ccc(Cl)cc2-c2cccc3ccnc1c23`, the IC50 is greater than 40 µM in assay [1]; 15.9 µM in assay [2]; 16.8 µM in assay [3]; 27.2 µM in assay [4]; greater than 40 µM in assay [5].

Regarding `O=C1c2c(F)cccc2-c2cccc3ccnc1c23`, the IC50 in assay [1] is 30.3 µM; in assay [2], 16.2 µM; in assay [3], 15.2 µM; in assay [4] it was 22.3 µM; in assay [5], greater than 40 µM. Besides, the outcome in assay [6] was Active.

For `O=C1c2ccc(F)cc2-c2cccc3ccnc1c23`, the IC50 was determined as 27.4 µM in assay [1]; 17.8 µM in assay [2]; 21.2 µM in assay [3]; 27.4 µM in assay [4]; 36.5 µM in assay [5].

Consider `O=C1c2cc([N+](=O)[O-])ccc2-c2cccc3ccnc1c23`, for which the half-maximal inhibitory concentration (IC50) in assay [1], in assay [2], in assay [3], in assay [4] and in assay [5] was greater than 40 µM in each case.

For `COc1ccc2c3c(nccc13)C(=O)c1cc(OCc3ccccc3)ccc1-2`, the IC50 was determined as 25.8 µM in assay [1]; 16.7 µM in assay [2]; 19.1 µM in assay [3]; 18.5 µM in assay [4]; 38.6 µM in assay [5].

As to `O=C1c2cc(OCc3ccccc3)ccc2-c2cccc3ccnc1c23`, the half-inhibitory concentration (IC50) in assay [1], in assay [2], in assay [3], in assay [4] and in assay [5] was greater than 40 µM in each case.

As for `Cc1ccc2c(c1)-c1cccc3ccnc(c13)C2=O`, the IC50 in assay [1] is 30.1 µM; in assay [2], 10.6 µM; in assay [3], 8.6 µM; in assay [4], 16.7 µM; in assay [5] it was 32.4 µM.

Regarding `O=C1c2cc(O)ccc2-c2cccc3ccnc1c23`, the IC50 in assay [1] is greater than 40 µM; in assay [2], 21.5 µM; in assay [3], 28.9 µM; in assay [4] it was 29.4 µM; in assay [5], greater than 40 µM.

For `COc1cc2c3c(nccc3c1OC)C(=O)c1cc(O)ccc1-2`, the IC50 in assay [1] was 36.9 µM; in assay [2], 30.9 µM; in assay [3], 26.2 µM; in assay [4], 38.4 µM; in assay [5], greater than 40 µM.

Consider `COc1ccc2c(c1)-c1cccc3ccnc(c13)C2=O`, for which the IC50 in assay [1] is 19.6 µM; in assay [2], 16.6 µM; in assay [3], 18.9 µM; in assay [4], 26.1 µM; in assay [5], greater than 40 µM.

`COc1ccc2c3c(nccc13)C(=O)c1cc(O)ccc1-2`: the 50% inhibitory concentration (IC50) is 34.1 µM in assay [1]; greater than 40 µM in assay [2]; 12.3 µM in assay [3]; 32.9 µM in assay [4]; greater than 40 µM in assay [5].

For `Cc1ccc2c(c1)C(=O)c1nccc3cccc-2c13`, the IC50 in assay [1] is 13.1 µM; in assay [2], 10 µM; in assay [3], 12.4 µM; in assay [4] it was 17 µM; in assay [5] it was 28.4 µM.

Regarding `O=C1c2cc(Cl)ccc2-c2cccc3ccnc1c23`, the IC50 in assay [1] is 15.3 µM; in assay [2] it was 26.3 µM; in assay [3], 34.1 µM; in assay [4] it was greater than 40 µM; in assay [5], greater than 40 µM.

In the case of `COc1cc2ccnc3c2c(c1OC)-c1ccccc1C3=O` [LYSICAMINE], the IC50 in assay [1] was greater than 40 µM; in assay [2] it was 15.8 µM; in assay [3], 7.3 µM; in assay [4] it was 12.1 µM; in assay [5], 6.7 µM.

As for `COc1cc2c3c(nccc3c1OC)C(=O)c1cc(OCc3ccccc3)ccc1-2`, the IC50 in assay [1] is greater than 40 µM; in assay [2], 15.8 µM; in assay [3], 7.3 µM; in assay [4], 22.1 µM; in assay [5] it was 35.1 µM.

Consider `COc1cc2c3c(nccc3c1OC)C(=O)c1ccccc1-2`, for which the IC50 in assay [1] amounted to 35 µM; in assay [2], 9.2 µM; in assay [3], 18.3 µM; in assay [4] it was 27.4 µM; in assay [5] it was 29.7 µM. The result in assay [6] was Active.

As to `COc1ccc2c3c(nccc13)C(=O)c1ccccc1-2`, the IC50 was determined as 12.8 µM in assay [1]; 7.3 µM in assay [2]; 6.5 µM in assay [3]; 10.4 µM in assay [4]; 20.4 µM in assay [5].

Consider `COc1ccc2c(c1)C(=O)c1nccc3cccc-2c13`, for which the IC50 in assay [1] was 7.3 µM; in assay [2] it was 14.8 µM; in assay [3] it was 20.4 µM; in assay [4], 19.4 µM; in assay [5], 28.7 µM.
